Assay [1] deals with T1, intracellular PLA2 (cytosolic PLA2, cPLA2) (Homo sapiens, UniProt P47712).
T1 sequence (P47712 1-749): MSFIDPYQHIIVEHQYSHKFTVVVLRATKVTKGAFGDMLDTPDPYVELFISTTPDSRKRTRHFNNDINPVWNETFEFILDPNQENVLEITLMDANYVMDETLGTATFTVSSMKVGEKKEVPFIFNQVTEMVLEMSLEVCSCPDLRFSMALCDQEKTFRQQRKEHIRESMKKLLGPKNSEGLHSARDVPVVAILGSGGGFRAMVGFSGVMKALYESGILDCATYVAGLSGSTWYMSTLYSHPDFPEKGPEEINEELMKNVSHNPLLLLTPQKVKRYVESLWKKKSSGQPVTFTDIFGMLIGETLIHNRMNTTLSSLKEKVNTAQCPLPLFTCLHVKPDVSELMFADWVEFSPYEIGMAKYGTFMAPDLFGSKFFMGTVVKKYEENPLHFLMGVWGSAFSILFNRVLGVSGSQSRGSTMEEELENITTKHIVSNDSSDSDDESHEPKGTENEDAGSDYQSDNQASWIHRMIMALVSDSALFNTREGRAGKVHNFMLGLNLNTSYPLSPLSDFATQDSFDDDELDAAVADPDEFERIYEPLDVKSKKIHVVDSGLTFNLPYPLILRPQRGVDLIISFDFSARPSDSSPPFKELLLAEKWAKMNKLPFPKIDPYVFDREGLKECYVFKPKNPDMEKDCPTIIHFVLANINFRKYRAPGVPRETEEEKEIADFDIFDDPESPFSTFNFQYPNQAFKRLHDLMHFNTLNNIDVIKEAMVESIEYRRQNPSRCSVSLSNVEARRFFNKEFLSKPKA
In words: Intracellular PLA2 (cPLA2) inhibitory activity (14C-arachidonyl phosphatidylcholine substrate). Format: biochemical. As to conditions: 2 μM radiolabelled phosphatidylcholine, 1 μM dioleoylglycerol, 1 mM CaCl2, pH 7.4; read-out: c-PLA2 Inhibition IC50. Here is the method: cPLA2 activity was assayed according to the method described in R. M. Kramer, E. F. Roberts, J. Manetta and J. E. Putnam, J. Biol. Chem., 268 (8), 5268-5272 (1991). Briefly, intracellular PLA2 activity was assayed using supersonic treated […] which contain 1-palmitoyl-2-[^14 C]arachidonyl-sn-glycero-3-phosphocholine and sn-1, 2-dioleoylglycerol at a molar ratio of 2:1. This test mixture contained 1 mM CaCl2, 2 mM dithiothreitol, 150 mM NaCl, 50 mM Hepes, pH 7.4 and 0.1 mg/ml BSA. A substrate is a 2 μM radioisotope labelled phosphatidylcholine ribosome containing 1 μM dioleoylglycerol. IC50 value is calculating in the same manner as in calculating it for secretory PLA2 inhibitory activity.

For assay [2], the target named is T2, Human secretory PLA2 (Homo sapiens, UniProt P14555).
T2 sequence (P14555 21-144): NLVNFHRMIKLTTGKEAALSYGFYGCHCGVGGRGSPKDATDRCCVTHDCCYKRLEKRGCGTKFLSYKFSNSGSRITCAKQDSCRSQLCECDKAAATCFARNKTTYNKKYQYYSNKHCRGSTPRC
In words: Secretory PLA2 inhibitory activity (diheptanoyl thio PC substrate, absorbance at 405 nm). Format: biochemical. Particulars: diheptanoyl thio PC 1 mM, Triton X100 0.3 mM, pH 7.3, CaCl2 10 mM, 30 minutes, read-out: s-PLA2 Inhibition IC50. The protocol: Secretory PLA2 activity was assayed according to the method described in Penynolds L. J., Hughes L. L., Dennis E. A. et al. Anal. Biochem. 201,190-197 (1992).
Diheptanoyl thiophosphatidylcholine which was prepared according to the procedure described in the literature was used as a substrate. Human secretory PLA2 was used as an enzyme. The diheptanoyl thio PC (1 mM) was reacted with the human secretory PLA2 in the presence of Triton X100 (0.3 mM) and 5,5'-dithiobis-(2-nitrobenzoic acid) (125 μM) in Tris buffer (25 mM, pH 7.3), CaCl2 (10 mM), KCI (100 mM), bovine serum albumin (1.0 mg/ml), and then the change in absorbance at 405 nm at the time of 30 minutes after the reaction was assayed.
Inhibitory activity (%) was estimated by the formula: [(the change in absorbance with the inhibitor and PLA2 ·the change in absorbance with the inhibitor and without PLA2)/(the change in absorbance without the inhibitor and with PLA2 ·the change in absorbance without the inhibitor and PLA2)]×100.
IC50 value (μM) was calculated from graph showing inhibitory values on the vertical axis and log of concentrations of the inhibitor on the horizontal axis.

The structures appear in SMILES notation.

Experimental findings from patent publication US5534533A, “Carboxylate derivatives exhibiting phospholipase A2 inhibitory activity” (Shionogi & Co., Ltd., priority 1993, dated 1996) are described below.

Usually IC50 stands for the concentration that inhibits the measured activity by half.

For `COc1c(C)c(OC(=O)c2c(C)c(C)c(OCCCS(=O)(=O)c3ccc(F)cc3)c(C)c2OC)c(C)c(C)c1C(=O)O` [Example 36, 4-{4-[3-(4-Fluorobenzenesulfonyl)propoxy]-2-methoxy-3,5,6-trimethylbenzoyloxy}-2-methoxy-3,5,6-trimethylbenzoic Acid], the 50% inhibitory concentration (IC50) was above 50 µM in assay [1] and 50 µM in assay [2].
Taken in the same sequence, the figures for `COc1c(C)c(OC(=O)c2c(C)c(C)c(OCCCOc3cccc(F)c3F)c(C)c2OC)c(C)c(C)c1C(=O)O` [Example 37, 4-{4-[3-(2,3-Difluorophenoxy)propoxy]-2-methoxy-3,5,6-trimethylbenzoyloxy}-2-methoxy-3,5,6-trimethylbenzoic Acid] were 6.6 µM and 12 µM.
For the compound `COc1c(C)c(OC(=O)c2c(C)c(C)c(OCCCOc3c(F)cccc3F)c(C)c2OC)c(C)c(C)c1C(=O)O` [Example 38, 4-{4-[3-(2,6-Difluorophenoxy)propoxy]-2-methoxy-3,5,6-trimethylbenzoyloxy}-2-methoxy-3,5,6-trimethylbenzoic Acid], the IC50 in assay [1] came to 7.1 µM; in assay [2] it was 6.7 µM.
Taken in the same sequence, the figures for `COc1ccccc1OCCCOc1c(C)c(C)c(C(=O)Oc2c(C)c(C)c(C(=O)O)c(OC)c2C)c(OC)c1C` [Example 39, 4-{4-[3-(2-Methoxyphenoxy)propoxy]-2-methoxy-3,5,6-trimethylbenzoyloxy}-2-methoxy-3,5,6-trimethylbenzoic Acid] were 12 µM and 8.9 µM.
As to `COc1cccc(OC)c1OCCCOc1c(C)c(C)c(C(=O)Oc2c(C)c(C)c(C(=O)O)c(OC)c2C)c(OC)c1C` [Example 40, 4-{4-[3-(2,6-Dimethoxyphenoxy)propoxy]-2-methoxy-3,5,6-trimethylbenzoyloxy}-2-methoxy-3,5,6-trimethylbenzoic Acid], the figures for the IC50 in assay [1] and in assay [2] were 13 µM and 6.1 µM, respectively.
On to `COc1cc(OC)cc(OCCCOc2c(C)c(C)c(C(=O)Oc3c(C)c(C)c(C(=O)O)c(OC)c3C)c(OC)c2C)c1` [Example 41, 4-{4-[3-(3,5-Dimethoxyphenoxy)propoxy]-2-methoxy-3,5,6-trimethylbenzoyloxy}-2-methoxy-3,5,6-trimethylbenzoic Acid], for which the half-inhibitory concentration (IC50) in assay [1] was 5.9 µM; in assay [2], 7 µM.
For `COc1c(C)c(OC(=O)c2c(C)c(C)c(OCCCOc3ccc(C(N)=O)cc3)c(C)c2OC)c(C)c(C)c1C(=O)O` [Example 42, 4-{4-[3-(4-Carbamoylphenoxy)propoxy]-2-methoxy-3,5,6-trimethylbenzoyloxy}-2-methoxy-3,5,6-trimethylbenzoic Acid], in that order: 31 µM and 5 µM.
As to `COC(=O)c1ccc(OCCCOc2c(C)c(C)c(C(=O)Oc3c(C)c(C)c(C(=O)O)c(OC)c3C)c(OC)c2C)cc1` [Example 43, 4-{4-[3-(4-Methoxycarbonylphenoxy)propoxy]-2-methoxy-3,5,6-trimethylbenzoyloxy}-2-methoxy-3,5,6 trimethylbenzoic Acid], the IC50 in assay [1] came out at 14 µM; in assay [2] it was 5.1 µM.
Taken in the same sequence, the figures for `COc1c(C)c(OC(=O)c2c(C)c(C)c(OCCCOc3ccc(F)cc3)c(C)c2OC)c(C)c(C)c1C(N)=O` [Example 44, 4-{4-[3-(4-Fluorophenoxy)propoxy]-2-methoxy-3,5,6-trimethylbenzoyloxy}-2-methoxy-3,5,6-trimethylbenzamide] were 9.3 µM and 0.94 µM.
Taken in the same sequence, the figures for `COc1c(C)c(OC(=O)c2c(C)c(C)c(OCCCOc3ccc(C(N)=O)cc3)c(C)c2OC)c(C)c(C)c1C(N)=O` [Example 45, 4-{4-[3-(4-Carbamoylphenoxy)propoxy]-2-methoxy-3,5,6-trimethylbenzoyloxy}-2-methoxy-3,5,6-trimethylbenzamide] were above 50 µM and 0.29 µM.
Taken in the same sequence, the figures for `COC(=O)c1ccc(OCCCOc2c(C)c(C)c(C(=O)Oc3c(C)c(C)c(C(N)=O)c(OC)c3C)c(OC)c2C)cc1` [Example 46, 4-{4-[3-(4-Methoxycarbonylphenoxy)propoxy]-2methoxy-3,5,6-trimethylbenzoyloxy}-2-methoxy-3,5,6 trimethylbenzamide] were above 50 µM and 0.74 µM.
For `COc1c(C)c(OC(=O)c2c(C)c(C)c(OCCCOc3ccc(C(=O)O)cc3)c(C)c2OC)c(C)c(C)c1C(N)=O` [Example 47, 4-{4-[3-(4-Carboxyphenoxy)propoxy]-2-methoxy-3,5,6-trimethylbenzoyloxy}-2-methoxy-3,5,6-trimethylbenzamide], the results for the IC50 in assay [1] and in assay [2] were 22 µM and 0.22 µM, respectively.
With `COc1c(C)c(OC(=O)c2c(C)c(C)c(OCCC=C(c3ccccc3)c3ccccc3)c(C)c2OC)c(C)c(C)c1C(=O)O` [Example 48, 4-[4-(4,4-Diphenylbut-3-enyloxy)-2-methoxy-3,5,6-trimethylbenzoyloxy]-2-methoxy-3,5,6-trimethylbenzoic Acid], the IC50 in assay [1] is 3 µM; in assay [2], 12 µM.
On to `COc1c(C)c(OC(=O)c2c(C)c(C)c(OCCC(C)CCCC(C)C)c(C)c2OC)c(C)c(C)c1C(=O)O` (stereo not shown) [Example 50, 4-[4-(3,7-Dimethyloctyloxy)-2-methoxy-3,5,6-trimethylbenzoyloxy]-2-methoxy-3,5,6-trimethylbenzoic Acid], for which the figures for the IC50 in assay [1] and in assay [2] were 3 µM and 50 µM, respectively.
Take `COc1c(C)c(OC(=O)c2c(C)c(C)c(OCCCN(S(=O)(=O)c3ccccc3)S(=O)(=O)c3ccccc3)c(C)c2OC)c(C)c(C)c1C(=O)O` [Example 51, 4-{4-[(3-Bisphenylsulfonylamino)propoxy]-2-methoxy-3,5,6-trimethylbenzoyloxy}-2-methoxy-3,5,6-trimethylbenzoic Acid]: the values for the IC50 in assay [1] and in assay [2] were 4.2 µM and 2.1 µM, respectively.
Consider `COc1c(C)c(OC(=O)c2c(C)c(C)c(OCCCN(S(C)(=O)=O)S(=O)(=O)c3ccccc3)c(C)c2OC)c(C)c(C)c1C(=O)O` [Example 52], for which the IC50 in assay [1] amounted to 21 µM; in assay [2], 4.5 µM.
Taken in the same sequence, the figures for `COc1c(C)c(OC(=O)c2c(C)c(C)c(OCCCN(C)S(=O)(=O)c3ccccc3)c(C)c2OC)c(C)c(C)c1C(=O)O` [Example 53] were 20 µM and 6 µM.
For the compound `COc1c(C)c(OC(=O)c2c(C)c(C)c(OCCCNS(=O)(=O)c3ccccc3)c(C)c2OC)c(C)c(C)c1C(=O)O` [Example 54, 4-{4-[(3-Phenylsulfonylamino)propoxy]-2-methoxy-3,5,6-trimethylbenzoyloxy}-2-methoxy-3,5,6-trimethylbenzoic Acid], the IC50 in assay [1] was above 50 µM; in assay [2], 17 µM.
In the case of `COc1c(C)c(OC(=O)c2c(C)c(C)c(OCCCN(S(=O)(=O)c3ccc(F)cc3)S(=O)(=O)c3ccc(F)cc3)c(C)c2OC)c(C)c(C)c1C(=O)O` [Example 55, 4-{4-[3-bis(4-Fluorophenyl)sulfonylaminopropoxy]-2-methoxy-3,5,6-trimethylbenzoyloxy}-2-methoxy-3,5,6-trimethylbenzoic Acid], the IC50 in assay [1] came out at 6.3 µM; in assay [2], 6.8 µM.
For `COc1c(C)c(OC(=O)c2c(C)c(C)c(OCCCNS(=O)(=O)c3ccc(F)cc3)c(C)c2OC)c(C)c(C)c1C(=O)O` [Example 56, 4-{4-[3-(4-Fluorophenyl)sulfonylaminopropoxy]-2-methoxy-3,5,6-trimethylbenzoyloxy}-2-methoxy-3,5,6 trimethylbenzoic Acid], in that order: above 50 µM and 14 µM.
